The results in this text go back to patent US20200131176A1, “SELECTIVE INHIBITORS OF CLINICALLY IMPORTANT MUTANTS OF THE EGFR TYROSINE KINASE” (CS Pharmatech Limited, priority 2017, published 2020).

Data set [1] has as its target T1, Exon 19 deletion EGFR (activating single mutant) in PC-9 cells (Homo sapiens, UniProt P00533, DEL746-750).
T1 construct: cellular phosphorylation of endogenous p-EGFR; host or cells: PC9 (PC-9) human lung cell line
The data set can be described thus: Exon 19 deletion EGFR PC-9 cellular autophosphorylation assay (p-EGFR ELISA). Format: cell-based. The settings on record: PC9, 2 h treatment, read-out: SM (PC9) IC50. (In general: An ELISA detects its analyte on a solid surface through an enzyme-linked reagent.)
Method: The human lung cell line PC9 (Exon 19 deletion EGFR) were obtained from the American type Culture Collection. […] Cells were grown in a humidified incubator at 37° C. with 5% CO2, Assays to measure cellular phosphorylation of endogenous p-EGFR in cell Iysates were carried out according to the protocol described in the R&D Systems DuoSet IC Human Phospho-EGF R ELISA (R&D Systems catalogue number # DYCI095). 40 μL of cells were seeded (10000 cells/well) in growth medium in Coming black, clear-bottomed 384-well plates and incubated at 37° C. with 5% CO2 overnight. […] Plates were incubated for a further 2 h, then following aspiration of medium, 40 μL× lysis buffer is added to each well. Greiner black high bind 384 well plates were coated with capture antibody and then blocked with 3% BSA. Following removal of block, 15 μL of lysate are transferred to the Greiner black high bind 384 well plates and incubated for 2 hours. Following aspiration and washing of the plates with PBS, 20 μL of detection antibody were added and incubated for 2 hours. […] The data obtained with each compound are exported into a suitable software package (such as Origin) to perform curve fitting analysis.

Data set [2] has as its target hERG channel (HEK 293 cell line stably expressing hERG channel) (Homo sapiens, UniProt Q12809). The experiment in a line: cell-based.
The next data set has as its system PC-9 cells. The experiment in a line: PC-9 growth inhibition assay (cell proliferation, CellTiter-Glo, 72 h). Format: cell-based, human. The settings on record: Homo sapiens, PC-9, 72 h, cellular proliferation, PC9 cells, single mutant EGFR, read-out: PC9 IC50 (nM) SM.
In another data set the test system is A431 cells. The experiment in a line: A431 inhibition assay (cell proliferation, CellTiter-Glo, 72 h). Format: cell-based, human. The settings on record: Homo sapiens, A-431, 72 h, cellular proliferation, wild type EGFR, read-out: A431 IC50 (nM) WT.
In the next data set the target is T2, IGF-1R (Homo sapiens, UniProt P08069).
T2 construct: purchased CARNA BIOSCIENCE 08-141
T2 sequence (P08069 959-1367 limits assumed): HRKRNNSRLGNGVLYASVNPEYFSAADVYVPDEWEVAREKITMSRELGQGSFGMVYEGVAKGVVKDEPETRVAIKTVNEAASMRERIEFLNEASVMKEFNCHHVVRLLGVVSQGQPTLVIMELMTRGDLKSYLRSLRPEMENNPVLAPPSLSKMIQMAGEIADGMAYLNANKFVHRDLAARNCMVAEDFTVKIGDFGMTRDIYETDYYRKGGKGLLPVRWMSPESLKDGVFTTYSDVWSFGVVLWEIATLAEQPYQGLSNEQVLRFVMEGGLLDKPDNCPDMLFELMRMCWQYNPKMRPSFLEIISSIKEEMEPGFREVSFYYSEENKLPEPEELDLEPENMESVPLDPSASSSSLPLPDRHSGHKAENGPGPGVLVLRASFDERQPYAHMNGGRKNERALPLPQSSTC
The data set can be described thus: IGF-1R inhibition assay (Caliper mobility shift). Format: biochemical. The note with it: enzyme assay.

In data set [3] the target is T3, L858R/T790M double mutant EGFR in H1975 cells (Homo sapiens, UniProt P00533, L858R/T790M).
T3 construct: endogenous in cells; host or cells: H1975 cells
T3 sequence (P00533 25-1210 T790M/L858R): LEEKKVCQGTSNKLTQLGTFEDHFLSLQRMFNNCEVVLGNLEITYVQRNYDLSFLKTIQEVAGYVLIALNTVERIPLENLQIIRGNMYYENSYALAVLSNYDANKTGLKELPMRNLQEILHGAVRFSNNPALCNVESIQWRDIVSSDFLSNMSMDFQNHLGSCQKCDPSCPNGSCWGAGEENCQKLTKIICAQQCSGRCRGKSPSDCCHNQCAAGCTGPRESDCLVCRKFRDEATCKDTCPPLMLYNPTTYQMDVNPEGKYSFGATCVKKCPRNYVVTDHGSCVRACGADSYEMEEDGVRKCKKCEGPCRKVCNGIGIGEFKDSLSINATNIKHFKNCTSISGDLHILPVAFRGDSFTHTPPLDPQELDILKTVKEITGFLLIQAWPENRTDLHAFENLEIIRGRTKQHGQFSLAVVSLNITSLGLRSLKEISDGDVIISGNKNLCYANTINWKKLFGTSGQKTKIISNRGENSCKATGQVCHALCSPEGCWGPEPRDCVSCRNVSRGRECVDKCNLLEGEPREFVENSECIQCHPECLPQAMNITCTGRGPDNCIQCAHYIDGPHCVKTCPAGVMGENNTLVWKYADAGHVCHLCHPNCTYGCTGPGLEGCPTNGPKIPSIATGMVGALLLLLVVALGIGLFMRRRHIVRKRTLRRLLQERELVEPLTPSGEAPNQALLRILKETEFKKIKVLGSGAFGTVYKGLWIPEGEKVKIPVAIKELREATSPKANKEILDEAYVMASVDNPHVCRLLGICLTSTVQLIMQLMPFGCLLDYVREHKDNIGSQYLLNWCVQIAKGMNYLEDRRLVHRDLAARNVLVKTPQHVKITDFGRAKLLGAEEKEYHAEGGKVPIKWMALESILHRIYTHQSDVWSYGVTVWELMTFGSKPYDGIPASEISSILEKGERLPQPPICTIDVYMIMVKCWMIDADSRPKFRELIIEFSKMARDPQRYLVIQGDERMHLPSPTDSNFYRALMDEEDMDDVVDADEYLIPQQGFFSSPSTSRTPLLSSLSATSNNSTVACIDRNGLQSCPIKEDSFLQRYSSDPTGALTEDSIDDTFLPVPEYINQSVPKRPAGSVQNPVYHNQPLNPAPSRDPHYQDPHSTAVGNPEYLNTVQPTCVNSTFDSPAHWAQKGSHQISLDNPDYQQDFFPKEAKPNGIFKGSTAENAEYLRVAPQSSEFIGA
The data set can be described thus: L858R/T790M double mutant H1975 autophosphorylation inhibition assay (ELISA). Format: cell-based. The note with it: cellular EGFR autophosphorylation, H1975, 2 h treatment; read-out: DM (H1975) IC50.

Another data set deals with T4, INSR (Homo sapiens, UniProt P06213).
T4 construct: purchased CARNA BIOSCIENCE 08-142
T4 sequence (P06213 1005-1382 limits assumed): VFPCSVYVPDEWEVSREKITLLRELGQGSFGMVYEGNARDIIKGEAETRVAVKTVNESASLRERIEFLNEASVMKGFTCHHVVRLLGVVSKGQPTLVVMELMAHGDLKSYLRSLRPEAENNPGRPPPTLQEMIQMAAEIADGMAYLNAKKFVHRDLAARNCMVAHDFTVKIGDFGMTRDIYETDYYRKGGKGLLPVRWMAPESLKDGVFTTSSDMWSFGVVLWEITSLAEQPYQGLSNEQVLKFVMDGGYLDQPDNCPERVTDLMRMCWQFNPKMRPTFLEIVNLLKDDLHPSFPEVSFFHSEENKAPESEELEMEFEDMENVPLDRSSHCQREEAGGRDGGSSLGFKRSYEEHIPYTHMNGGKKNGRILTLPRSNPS
The data set can be described thus: INSR inhibition assay (Caliper mobility shift). Format: biochemical. The settings on record: enzyme assay.

The target of data set [4] is Wild type EGFR in A431 cells (Homo sapiens, UniProt P00533). The settings on record: WT (A431) IC50 nM, cellular EGFR autophosphorylation, A431, 2 h treatment then EGF stimulation 10 min.
Another data set concerns H1975 cells. The experiment in a line: H1975 inhibition assay (cell proliferation, CellTiter-Glo, 72 h). Format: cell-based, human. The settings on record: Homo sapiens, NCI-H1975, 72 h, cellular proliferation, double mutant EGFR, read-out: NCI-H1975 IC50 (nM) DM. A general note: ATP-based viability assays read luminescence as a measure of living cells.
A short description of data set [5]: Mouse in vivo PK study. The note with it: mouse, plasma, male CD1 mice, 10 mg/kg PO.
A short description of data set [6]: Mouse in vivo PK study. The settings on record: male CD1 mice, 1 mg/kg IV. How it is done: To determine the drug concentration in plasma of the compounds of the present disclosure following intravenous and oral administration in male CD 1 Mice, pharmacokinetic profile and PK parameters were obtained.
Test animals: healthy male CD1 mice (body weight 20-30 g, 18 mice, free access to food and water), provided by Sibeifu laboratory. […]
Samples collection: the healthy animals were used, weighed the bodyweight and marked at tail and cage card prior to dosing. Blood samples (0.03 mL per time point) were collected from dorsal metatarsal vein at 0.083, 0.25, 0.5, 1, 2, 4, 8, 24 h post dose for IV group and at 0.25, 0.5, 1, 2, 4, 8, 24 h post dose for PO group, the terminal time point was collected from heart (˜0.3 mL). The blood samples were put into the tube with heparin-Na coated and then put on the cold box, centrifuged at 4° C. 4000 g, 5 minutes immediately after collecting all samples per time point to get plasma. The plasma samples were stored in a freezer at −75±15° C. prior to analysis.
The drug concentration was determined by LC/MS/MS method, and the PK parameters were observed as follows.

Where two headings read alike, the source gives them in different places.

T1 sequence (P00533 with tags, fused parts or gaps DEL746-750): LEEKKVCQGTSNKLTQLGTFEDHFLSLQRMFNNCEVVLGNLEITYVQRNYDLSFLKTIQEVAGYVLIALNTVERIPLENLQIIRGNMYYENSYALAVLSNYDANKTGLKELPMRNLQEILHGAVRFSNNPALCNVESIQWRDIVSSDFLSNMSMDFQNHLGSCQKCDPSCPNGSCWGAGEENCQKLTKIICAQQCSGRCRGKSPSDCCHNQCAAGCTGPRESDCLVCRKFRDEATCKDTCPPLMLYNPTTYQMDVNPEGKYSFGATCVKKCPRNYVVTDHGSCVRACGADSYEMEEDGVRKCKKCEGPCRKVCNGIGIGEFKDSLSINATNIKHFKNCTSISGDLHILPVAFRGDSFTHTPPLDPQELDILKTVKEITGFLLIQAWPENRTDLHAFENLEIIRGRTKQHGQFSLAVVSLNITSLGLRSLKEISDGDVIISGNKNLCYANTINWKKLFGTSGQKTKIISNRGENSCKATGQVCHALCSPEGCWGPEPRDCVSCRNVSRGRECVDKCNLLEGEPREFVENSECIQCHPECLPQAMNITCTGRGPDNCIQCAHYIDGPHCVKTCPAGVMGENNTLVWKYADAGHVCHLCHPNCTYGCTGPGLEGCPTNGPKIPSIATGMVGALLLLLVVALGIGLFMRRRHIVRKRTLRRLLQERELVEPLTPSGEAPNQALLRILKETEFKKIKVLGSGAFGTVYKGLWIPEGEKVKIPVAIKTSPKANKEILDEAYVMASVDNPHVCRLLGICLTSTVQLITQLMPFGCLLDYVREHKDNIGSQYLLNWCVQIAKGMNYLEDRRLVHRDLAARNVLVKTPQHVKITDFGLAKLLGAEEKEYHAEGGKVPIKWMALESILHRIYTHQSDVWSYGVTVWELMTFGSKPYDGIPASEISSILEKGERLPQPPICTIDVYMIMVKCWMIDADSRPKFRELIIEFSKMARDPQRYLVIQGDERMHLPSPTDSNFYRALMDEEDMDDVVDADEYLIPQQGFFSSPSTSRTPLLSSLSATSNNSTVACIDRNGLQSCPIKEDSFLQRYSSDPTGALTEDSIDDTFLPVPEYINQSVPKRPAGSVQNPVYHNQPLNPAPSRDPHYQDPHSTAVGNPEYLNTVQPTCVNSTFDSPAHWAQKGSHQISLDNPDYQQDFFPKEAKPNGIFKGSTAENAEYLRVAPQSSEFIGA
Sequence of hERG channel (HEK 293 cell line stably expressing hERG channel) (Q12809 whole entry): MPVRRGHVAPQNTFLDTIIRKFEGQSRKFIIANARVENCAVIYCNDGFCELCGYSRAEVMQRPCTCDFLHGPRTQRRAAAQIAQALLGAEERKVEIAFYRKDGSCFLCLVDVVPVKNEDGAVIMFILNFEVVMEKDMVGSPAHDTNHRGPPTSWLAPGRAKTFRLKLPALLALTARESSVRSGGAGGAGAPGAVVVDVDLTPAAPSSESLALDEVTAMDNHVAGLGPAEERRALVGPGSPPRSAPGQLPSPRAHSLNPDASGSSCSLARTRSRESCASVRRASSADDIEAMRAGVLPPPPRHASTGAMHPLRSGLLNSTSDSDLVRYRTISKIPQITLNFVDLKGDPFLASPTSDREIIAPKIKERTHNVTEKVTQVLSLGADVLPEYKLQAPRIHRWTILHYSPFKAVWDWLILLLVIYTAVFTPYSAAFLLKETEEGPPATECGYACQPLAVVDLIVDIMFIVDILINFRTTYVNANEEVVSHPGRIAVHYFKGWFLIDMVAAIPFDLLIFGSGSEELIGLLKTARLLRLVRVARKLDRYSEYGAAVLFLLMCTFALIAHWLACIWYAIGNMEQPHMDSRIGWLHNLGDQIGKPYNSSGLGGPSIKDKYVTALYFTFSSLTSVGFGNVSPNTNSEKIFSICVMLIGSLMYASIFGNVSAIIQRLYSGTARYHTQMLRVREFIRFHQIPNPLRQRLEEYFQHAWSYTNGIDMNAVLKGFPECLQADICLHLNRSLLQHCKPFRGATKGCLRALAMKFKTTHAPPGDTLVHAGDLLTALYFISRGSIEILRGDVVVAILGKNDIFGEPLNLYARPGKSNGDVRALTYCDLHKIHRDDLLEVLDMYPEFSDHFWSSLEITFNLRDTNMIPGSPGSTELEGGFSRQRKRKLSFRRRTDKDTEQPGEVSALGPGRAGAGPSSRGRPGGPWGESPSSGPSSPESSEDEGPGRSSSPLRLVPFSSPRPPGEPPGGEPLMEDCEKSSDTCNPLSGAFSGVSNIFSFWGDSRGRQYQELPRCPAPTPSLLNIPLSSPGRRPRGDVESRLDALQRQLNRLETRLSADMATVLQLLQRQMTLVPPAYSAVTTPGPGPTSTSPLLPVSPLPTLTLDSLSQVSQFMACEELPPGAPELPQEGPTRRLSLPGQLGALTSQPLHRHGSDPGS
Method for IGF-1R: Test compound was dissolved in DMSO at 30 mM. […] 20 nL of these compounds DMSO dilutes were dispensed into a new 384-well assay plate by Echo 550. […] 15 μL of kinase assay buffer containing IGF-1R protein and substrate was transferred to assay plate and incubate at RT for 30 minutes. Kinase assay buffer supplemented with substrate peptides was employed as low control to monitor the background. 40 μM ATP was prepared in kinase assay buffer containing and 5 μL of ATP solution was added to each well to start the reaction. The assay plate was incubated at 25° C. for 180 minutes and the reaction was stopped by adding 40 μL of 0.5 M EDTA.
Phosphorylated fluorescent-tagged peptides were differentiated from non-phosphorylated peptides by separating using Caliper EZ Reader II and the detection was directly converted to conversion ratio.
Method for INSR: Test compound was dissolved in DMSO at 30 mM. […] 20 nL of these compounds DMSO dilutes were dispensed into a new 384-well assay plate by Echo 550. […] 15 μL of kinase assay buffer containing INSR protein and substrate was transferred to assay plate and incubate at RT for 30 minutes. Kinase assay buffer supplemented with substrate peptides was employed as low control to monitor the background. 40 μM ATP was prepared in kinase assay buffer containing and 5 μL of ATP solution was added to each well to start the reaction. The assay plate was incubated at 25° C. for 180 minutes and the reaction was stopped by adding 40 μL of 0.5 M EDTA.
The result was analyzed in the same manner as IGF-IR.

A word on the IC50: it is the concentration needed to halve the response being measured. Take `C=CC(=O)Nc1cc(Nc2nccc(-n3nc(N(C)C)c4ncccc43)n2)c(OC(F)F)cc1N(C)CCN(C)C` [Example 19]: the IC50 turned out to be 14.7 nM in data set [1]; 1100 nM in [2]; 3.78 nM in the data set on PC-9 cells; 953 nM in the data set with A431 cells; 1680 nM on IGF-1R; 5.35 nM in data set [3]. For the same compound, the IC50 stood at 1750 nM at INSR, 92.8 nM in [4] and 2.82 nM with H1975 cells.

Consider `C=CC(=O)Nc1cc(Nc2nccc(-n3nc(N(C)C)c4ncccc43)n2)c(OCC(F)F)cc1N(C)CCN(C)C` [Example 21, N-(4-(2,2-Difluoroethoxy)-5-((4-(3-(dimethylamino)-1H-pyrazolo[4,3-b]pyridin-1-yl)pyrimidin-2-yl)amino)-2-(N-(2-(dimethylamino)ethyl)-N-methylamino)phenyl)acrylamide], for which the IC50 in [1] turned out to be 23.8 nM; in data set [2], 3230 nM; in the data set on PC-9 cells, 7.21 nM; with A431 cells it was 1710 nM; at IGF-1R it was 1510 nM; in data set [3], 12.2 nM. Besides, the IC50 was 2730 nM on INSR, 192 nM in [4] and 6.84 nM in the data set on H1975 cells.

By AUC is commonly meant concentration integrated over time. For orientation: Cmax means the peak of the concentration-time curve. The term clearance denotes the volume of plasma or blood freed of the substance per unit of time. Read a low clearance as a low capacity for elimination. As for `C=CC(=O)Nc1cc(Nc2nccc(-c3cc(C#N)cc4c3ccn4C)n2)c(OC)cc1N(C)CCN(C)C` [Example 4, N-(5-((4-(6-Cyano-1-methyl-1H-indol-4-yl)pyrimidin-2-yl)amino)-2-((2-(dimethylamino)ethyl)(methyl)amino)-4-methoxyphenyl)acrylamide], the AUC in the data set “Mouse in vivo PK study [5]” came to 225 ng·h/mL; in the data set “Mouse in vivo PK study [6]” (mouse, plasma) it was 96 ng·h/mL. The highest level in the data set “Mouse in vivo PK study [5]” (Cmax) was 80.2 ng/mL. The half-life in the data set “Mouse in vivo PK study [5]” (read-out: T1/2 (PO) (converted)) is 7.3 h; in “Mouse in vivo PK study [6]” (mouse, plasma, read-out: T1/2 (IV) (converted)) it was 0.576 h. Besides, the 50% inhibitory concentration (IC50) worked out at 10.9 nM in data set [1]; 2230 nM in data set [2]; 1.91 nM with PC-9 cells; 1460 nM in the data set with A431 cells; 831 nM on IGF-1R; 1.98 nM in data set [3]. In addition, the IC50 on INSR was 965 nM; in [4] it was 69.5 nM; in the data set with H1975 cells, 1.03 nM. The F in “Mouse in vivo PK study [6]” (10 mg/kg PO) was found to be 15%. Moreover, the clearance in “Mouse in vivo PK study [6]” (mouse, plasma) turned out to be 183 mL/min/kg.

For `C=CC(=O)Nc1cc(Nc2nccc(-n3nc(N(C)C)c4ccccc43)n2)c(OC(F)F)cc1N(C)CCN(C)C` [Example 18, N-(4-(Difluoromethoxy)-5-((4-(3-(dimethylamino)-1H-indazol-1-yl)pyrimidin-2-yl)amino)-2-((2-(dimethylamino)ethyl)(methyl)amino)phenyl) acrylamide], the IC50 in data set [1] amounted to 5.87 nM; in data set [2], 1680 nM; in the data set with PC-9 cells, 1.79 nM; in the data set on A431 cells, 1240 nM; at IGF-1R, 1160 nM; in data set [3] it was 3.94 nM. Further, the IC50 was 968 nM on INSR, 49.1 nM in data set [4] and 2.66 nM in the data set on H1975 cells.
